Source: the kinase profiling compilation of Christmann-Franck et al. (2016)

Columns and labels:
Assay in all cases: radiometric filter-binding kinase assay, Kinase HotSpot
Details in all cases: compound 0.5 µM; ATP 10 µM
[1] = molecular target: CLK2 (human) (UniProt P49760)
[2] = molecular target: TAOK2 (human) (UniProt Q9UL54)
[3] = molecular target: ERBB4 (human) (UniProt Q15303)
[4] = molecular target: RAF1 (human) (UniProt P04049)
[5] = molecular target: FER (human) (UniProt P16591)
[6] = molecular target: CSNK1G3 (human) (UniProt Q9Y6M4)
[7] = molecular target: MST4 (human) (UniProt Q9P289)
[8] = molecular target: MAPK9 (human) (UniProt P45984)
[9] = molecular target: NUAK1 (human) (UniProt O60285)
[10] = molecular target: PHKG2 (human) (UniProt P15735)
[11] = molecular target: ULK2 (human) (UniProt Q8IYT8)
[12] = molecular target: RPS6KB2 (human) (UniProt Q9UBS0)
[13] = molecular target: ROCK1 (human) (UniProt Q13464)
[14] = molecular target: NEK7 (human) (UniProt Q8TDX7)
[15] = molecular target: TEK (human) (UniProt Q02763)
[16] = molecular target: HIPK2 (human) (UniProt Q9H2X6)
[17] = molecular target: MAPK10 (human) (UniProt P53779)
[18] = molecular target: PAK4 (human) (UniProt O96013)
[19] = molecular target: MAP2K2 (human) (UniProt P36507)
[20] = molecular target: TGFBR1 (human) (UniProt P36897)
[21] = molecular target: CDK5 CDK5R1 p25 (human) (UniProt Q00535+Q15078)
[22] = molecular target: ALK (human) (UniProt Q9UM73)
[23] = molecular target: DYRK4 (human) (UniProt Q9NR20)
[24] = molecular target: PAK6 (human) (UniProt Q9NQU5)
[25] = molecular target: MST1R (human) (UniProt Q04912)
Chain of MST1R (human) (Q04912 whole entry, looked up): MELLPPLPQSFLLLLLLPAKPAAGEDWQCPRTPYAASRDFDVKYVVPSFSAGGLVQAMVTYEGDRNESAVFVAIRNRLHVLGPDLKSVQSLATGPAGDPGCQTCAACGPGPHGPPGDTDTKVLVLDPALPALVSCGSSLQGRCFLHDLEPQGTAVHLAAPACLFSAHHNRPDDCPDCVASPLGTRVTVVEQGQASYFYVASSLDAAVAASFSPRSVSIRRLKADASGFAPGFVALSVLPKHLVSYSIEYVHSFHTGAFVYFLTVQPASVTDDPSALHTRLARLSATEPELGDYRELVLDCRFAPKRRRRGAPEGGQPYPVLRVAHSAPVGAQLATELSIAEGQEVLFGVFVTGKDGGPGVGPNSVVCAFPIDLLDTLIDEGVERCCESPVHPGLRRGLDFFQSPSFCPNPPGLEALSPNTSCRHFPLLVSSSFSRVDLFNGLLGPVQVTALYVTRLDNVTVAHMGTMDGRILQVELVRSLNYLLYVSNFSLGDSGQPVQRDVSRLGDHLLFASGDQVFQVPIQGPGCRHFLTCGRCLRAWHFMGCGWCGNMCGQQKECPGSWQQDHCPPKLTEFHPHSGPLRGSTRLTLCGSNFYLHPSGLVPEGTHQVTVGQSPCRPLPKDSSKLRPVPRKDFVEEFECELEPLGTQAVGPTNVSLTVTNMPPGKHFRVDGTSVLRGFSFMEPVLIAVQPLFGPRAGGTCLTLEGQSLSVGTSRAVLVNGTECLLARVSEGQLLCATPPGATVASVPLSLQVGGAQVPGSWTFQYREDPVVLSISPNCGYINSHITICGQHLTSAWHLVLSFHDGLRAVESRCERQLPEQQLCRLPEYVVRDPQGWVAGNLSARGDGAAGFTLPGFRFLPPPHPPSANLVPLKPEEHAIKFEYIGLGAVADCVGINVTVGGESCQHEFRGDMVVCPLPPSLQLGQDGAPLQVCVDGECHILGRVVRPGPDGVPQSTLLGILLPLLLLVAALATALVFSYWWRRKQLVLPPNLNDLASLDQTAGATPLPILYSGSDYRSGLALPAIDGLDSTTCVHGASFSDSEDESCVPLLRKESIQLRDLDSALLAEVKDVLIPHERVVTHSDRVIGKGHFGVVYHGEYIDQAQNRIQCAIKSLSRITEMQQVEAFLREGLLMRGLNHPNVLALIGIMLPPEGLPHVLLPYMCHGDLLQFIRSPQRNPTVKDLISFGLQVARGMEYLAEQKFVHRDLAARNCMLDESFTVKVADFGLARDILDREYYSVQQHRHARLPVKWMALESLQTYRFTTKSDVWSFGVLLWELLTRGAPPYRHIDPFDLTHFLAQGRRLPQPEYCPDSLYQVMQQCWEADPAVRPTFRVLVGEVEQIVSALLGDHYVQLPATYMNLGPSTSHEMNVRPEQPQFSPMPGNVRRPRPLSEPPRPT

[26] = molecular target: CSF1R (human) (UniProt P07333)
[27] = molecular target: CAMK1 (human) (UniProt Q14012)
[28] = molecular target: PRKX (human) (UniProt P51817)
[29] = molecular target: EPHB2 (human) (UniProt P29323)
[30] = molecular target: CLK4 (human) (UniProt Q9HAZ1)
[31] = molecular target: JAK3 JH1 JH2 (human) (UniProt P52333)
[32] = molecular target: MAP3K14 (human) (UniProt Q99558)
Chain of MAP3K14 (human) (Q99558 whole entry, looked up): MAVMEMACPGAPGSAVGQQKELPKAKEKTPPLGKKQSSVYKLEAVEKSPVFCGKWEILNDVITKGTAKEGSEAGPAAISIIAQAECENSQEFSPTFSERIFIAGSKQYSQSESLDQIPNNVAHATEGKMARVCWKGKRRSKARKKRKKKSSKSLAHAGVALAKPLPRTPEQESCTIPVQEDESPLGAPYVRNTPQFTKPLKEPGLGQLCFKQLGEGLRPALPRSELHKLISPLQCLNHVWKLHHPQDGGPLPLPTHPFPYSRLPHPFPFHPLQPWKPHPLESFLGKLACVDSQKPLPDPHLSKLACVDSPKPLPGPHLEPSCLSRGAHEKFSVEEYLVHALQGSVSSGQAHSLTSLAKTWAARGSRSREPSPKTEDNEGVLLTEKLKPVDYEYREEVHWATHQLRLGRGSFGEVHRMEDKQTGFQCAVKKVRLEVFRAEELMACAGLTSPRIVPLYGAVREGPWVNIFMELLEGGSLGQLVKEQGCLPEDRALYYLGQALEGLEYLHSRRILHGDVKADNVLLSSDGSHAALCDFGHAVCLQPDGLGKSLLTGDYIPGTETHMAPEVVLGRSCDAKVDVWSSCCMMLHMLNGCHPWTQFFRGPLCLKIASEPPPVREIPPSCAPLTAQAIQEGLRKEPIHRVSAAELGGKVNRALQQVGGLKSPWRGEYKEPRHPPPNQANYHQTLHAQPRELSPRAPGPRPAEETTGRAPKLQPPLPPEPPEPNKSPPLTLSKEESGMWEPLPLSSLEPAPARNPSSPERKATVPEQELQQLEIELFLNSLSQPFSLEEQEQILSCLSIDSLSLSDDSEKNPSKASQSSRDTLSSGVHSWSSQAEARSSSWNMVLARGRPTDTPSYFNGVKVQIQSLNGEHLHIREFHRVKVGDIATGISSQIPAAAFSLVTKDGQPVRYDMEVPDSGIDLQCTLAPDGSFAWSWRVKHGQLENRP

[33] = molecular target: KDR (human) (UniProt P35968)
[34] = molecular target: PNCK (human) (UniProt Q6P2M8)
[35] = molecular target: IRAK4 (human) (UniProt Q9NWZ3)
[36] = molecular target: ZAP70 (human) (UniProt P43403)
Chain of ZAP70 (human) (P43403 whole entry, looked up): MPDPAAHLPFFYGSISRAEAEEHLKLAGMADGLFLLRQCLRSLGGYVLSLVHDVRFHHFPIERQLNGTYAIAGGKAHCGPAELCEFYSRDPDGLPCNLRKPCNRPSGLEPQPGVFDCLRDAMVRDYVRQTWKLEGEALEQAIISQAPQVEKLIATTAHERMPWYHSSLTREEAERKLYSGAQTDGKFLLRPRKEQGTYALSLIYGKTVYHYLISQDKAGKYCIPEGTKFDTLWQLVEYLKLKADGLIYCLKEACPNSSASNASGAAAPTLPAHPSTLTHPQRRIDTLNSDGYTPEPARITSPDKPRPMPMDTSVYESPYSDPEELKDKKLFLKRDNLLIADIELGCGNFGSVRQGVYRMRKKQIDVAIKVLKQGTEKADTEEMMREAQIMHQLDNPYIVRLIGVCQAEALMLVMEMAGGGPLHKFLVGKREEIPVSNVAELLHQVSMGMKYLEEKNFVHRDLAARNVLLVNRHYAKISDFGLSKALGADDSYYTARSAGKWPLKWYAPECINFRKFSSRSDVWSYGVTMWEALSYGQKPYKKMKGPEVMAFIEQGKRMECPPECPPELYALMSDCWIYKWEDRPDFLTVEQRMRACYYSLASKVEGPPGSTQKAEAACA

[37] = molecular target: MARK4 (human) (UniProt Q96L34)
Chain of MARK4 (human) (Q96L34 whole entry, looked up): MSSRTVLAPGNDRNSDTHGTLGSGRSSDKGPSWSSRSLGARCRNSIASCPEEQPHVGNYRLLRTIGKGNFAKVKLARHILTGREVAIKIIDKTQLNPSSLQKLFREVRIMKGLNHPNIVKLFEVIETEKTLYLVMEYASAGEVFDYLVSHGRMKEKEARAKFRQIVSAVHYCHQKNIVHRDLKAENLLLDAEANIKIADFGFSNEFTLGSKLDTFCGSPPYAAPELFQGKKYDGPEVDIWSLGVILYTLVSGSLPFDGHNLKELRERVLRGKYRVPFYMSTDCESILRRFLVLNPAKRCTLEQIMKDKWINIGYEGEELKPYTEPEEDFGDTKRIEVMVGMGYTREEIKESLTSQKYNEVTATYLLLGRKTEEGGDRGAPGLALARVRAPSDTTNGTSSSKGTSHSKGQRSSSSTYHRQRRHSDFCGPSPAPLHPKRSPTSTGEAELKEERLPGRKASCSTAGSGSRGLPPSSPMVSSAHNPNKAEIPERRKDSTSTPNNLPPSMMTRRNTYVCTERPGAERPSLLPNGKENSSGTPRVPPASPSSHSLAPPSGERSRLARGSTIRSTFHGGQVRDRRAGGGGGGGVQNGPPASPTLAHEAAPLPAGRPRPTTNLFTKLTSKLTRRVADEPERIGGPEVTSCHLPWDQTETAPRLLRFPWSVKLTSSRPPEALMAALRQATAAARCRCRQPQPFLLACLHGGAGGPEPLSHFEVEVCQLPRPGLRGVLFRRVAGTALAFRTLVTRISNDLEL

[38] = molecular target: STK11 (human) (UniProt Q15831)
[39] = molecular target: CLK3 (human) (UniProt P49761)
[40] = molecular target: LTK (human) (UniProt P29376)
Chain of LTK (human) (P29376 whole entry, looked up): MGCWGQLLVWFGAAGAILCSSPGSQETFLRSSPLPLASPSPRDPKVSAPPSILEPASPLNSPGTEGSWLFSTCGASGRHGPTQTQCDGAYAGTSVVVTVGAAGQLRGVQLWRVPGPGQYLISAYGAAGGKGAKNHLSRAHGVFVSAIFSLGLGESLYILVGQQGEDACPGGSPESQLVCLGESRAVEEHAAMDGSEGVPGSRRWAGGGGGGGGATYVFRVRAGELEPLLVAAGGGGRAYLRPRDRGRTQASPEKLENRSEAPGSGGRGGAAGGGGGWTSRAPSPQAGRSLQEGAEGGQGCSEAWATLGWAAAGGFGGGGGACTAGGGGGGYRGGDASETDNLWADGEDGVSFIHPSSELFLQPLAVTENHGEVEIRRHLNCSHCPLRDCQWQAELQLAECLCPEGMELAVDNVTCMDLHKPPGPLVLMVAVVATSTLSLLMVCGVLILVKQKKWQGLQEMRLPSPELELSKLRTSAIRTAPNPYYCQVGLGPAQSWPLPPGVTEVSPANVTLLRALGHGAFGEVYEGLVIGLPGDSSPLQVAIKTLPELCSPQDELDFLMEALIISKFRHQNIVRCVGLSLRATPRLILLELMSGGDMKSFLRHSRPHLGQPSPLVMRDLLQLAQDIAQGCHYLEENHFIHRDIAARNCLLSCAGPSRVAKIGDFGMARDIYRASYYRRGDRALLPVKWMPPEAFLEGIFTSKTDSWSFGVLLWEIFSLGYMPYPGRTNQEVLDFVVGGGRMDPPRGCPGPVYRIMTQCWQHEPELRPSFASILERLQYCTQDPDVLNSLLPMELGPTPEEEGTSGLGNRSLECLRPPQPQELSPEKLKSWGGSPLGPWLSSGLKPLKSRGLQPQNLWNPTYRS

[41] = molecular target: MAP3K8 (human) (UniProt P41279)
Chain of MAP3K8 (human) (P41279 whole entry, looked up): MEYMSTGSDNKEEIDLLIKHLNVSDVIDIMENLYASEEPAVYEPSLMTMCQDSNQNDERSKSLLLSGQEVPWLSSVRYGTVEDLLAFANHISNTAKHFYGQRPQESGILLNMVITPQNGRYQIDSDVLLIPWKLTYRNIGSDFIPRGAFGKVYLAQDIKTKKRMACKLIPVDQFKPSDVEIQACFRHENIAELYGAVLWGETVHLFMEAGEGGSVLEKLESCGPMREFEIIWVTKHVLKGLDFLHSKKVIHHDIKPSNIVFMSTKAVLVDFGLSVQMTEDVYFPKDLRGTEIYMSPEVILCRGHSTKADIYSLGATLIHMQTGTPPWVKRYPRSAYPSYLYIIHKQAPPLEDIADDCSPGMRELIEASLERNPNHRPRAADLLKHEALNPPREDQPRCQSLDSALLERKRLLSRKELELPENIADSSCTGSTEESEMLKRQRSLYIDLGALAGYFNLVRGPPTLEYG

[42] = molecular target: DSTYK (human) (UniProt Q6XUX3)

O=C1Nc2ccccc2/C1=C1\Nc2ccccc2\C1=N/O
residual activity [1]: 92.5% | residual activity [2]: 96.3% | residual activity [3]: 102% | residual activity [4]: 99.3% | residual activity [5]: 67.8% | residual activity [6]: 81.9% | residual activity [7]: 75.3% | residual activity [8]: 65.6% | residual activity [9]: 8.89% | residual activity [10]: 60.7% | residual activity [11]: 103% | residual activity [12]: 107% | residual activity [13]: 101% | residual activity [14]: 106% | residual activity [15]: 98.7% | residual activity [16]: 104% | residual activity [17]: 96.4% | residual activity [18]: 77.1% | residual activity [19]: 100% | residual activity [20]: 98.9% | residual activity [21]: 28.7% | residual activity [22]: 76.5% | residual activity [23]: 96.8% | residual activity [24]: 94.4% | residual activity [25]: 103% | residual activity [26]: 83.2% | residual activity [27]: 83.7% | residual activity [28]: 88.8% | residual activity [29]: 83.3% | residual activity [30]: 59.2% | residual activity [31]: 51.5% | residual activity [32]: 88.7% | residual activity [33]: 72.9% | residual activity [34]: 106% | residual activity [35]: 102% | residual activity [36]: 95.6% | residual activity [37]: 56.2% | residual activity [38]: 25.6% | residual activity [39]: 48.2% | residual activity [40]: 62.3% | residual activity [41]: 106% | residual activity [42]: 108%

Cc1nc2cc3nc(-c4cccs4)cnc3cc2n1C
residual activity [1]: 95.3% | residual activity [2]: 99.7% | residual activity [3]: 95% | residual activity [4]: 104% | residual activity [5]: 104% | residual activity [6]: 96.1% | residual activity [7]: 99.3% | residual activity [8]: 74.7% | residual activity [9]: 95.3% | residual activity [10]: 102% | residual activity [11]: 105% | residual activity [12]: 98% | residual activity [13]: 97.8% | residual activity [14]: 86.5% | residual activity [15]: 96.6% | residual activity [16]: 107% | residual activity [17]: 96.3% | residual activity [18]: 126% | residual activity [19]: 77.5% | residual activity [20]: 98.7% | residual activity [21]: 99.3% | residual activity [22]: 99.8% | residual activity [23]: 104% | residual activity [24]: 96.6% | residual activity [25]: 107% | residual activity [26]: 63.5% | residual activity [27]: 98.1% | residual activity [28]: 106% | residual activity [29]: 101% | residual activity [30]: 79.2% | residual activity [31]: 107% | residual activity [32]: 97.4% | residual activity [33]: 77.4% | residual activity [34]: 102% | residual activity [35]: 201% | residual activity [36]: 93.3% | residual activity [37]: 105% | residual activity [38]: 89.6% | residual activity [39]: 114% | residual activity [40]: 95.2% | residual activity [41]: 99% | residual activity [42]: 106%

O=C(CCCc1ccc(-c2ccccc2F)cc1)Nc1ccc(O)cc1
residual activity [1]: 103% | residual activity [2]: 98.4% | residual activity [3]: 107% | residual activity [4]: 102% | residual activity [5]: 103% | residual activity [6]: 104% | residual activity [7]: 91.5% | residual activity [8]: 106% | residual activity [9]: 96.4% | residual activity [10]: 102% | residual activity [11]: 116% | residual activity [12]: 104% | residual activity [13]: 106% | residual activity [14]: 97.3% | residual activity [15]: 101% | residual activity [16]: 112% | residual activity [17]: 100% | residual activity [18]: 95.4% | residual activity [19]: 95.1% | residual activity [20]: 102% | residual activity [21]: 94.6% | residual activity [22]: 97% | residual activity [23]: 97.4% | residual activity [24]: 108% | residual activity [25]: 106% | residual activity [26]: 104% | residual activity [27]: 101% | residual activity [28]: 106% | residual activity [29]: 98.5% | residual activity [30]: 103% | residual activity [31]: 92.1% | residual activity [32]: 99.2% | residual activity [33]: 101% | residual activity [34]: 102% | residual activity [35]: 86.3% | residual activity [36]: 99.7% | residual activity [37]: 124% | residual activity [38]: 97.4% | residual activity [39]: 124% | residual activity [40]: 106% | residual activity [41]: 101% | residual activity [42]: 103%
